Laboratory results reported in patent US11911394B2, “Compound and method for the prevention of transmission of influenza virus” (Hoffmann-La Roche Inc., priority 2019, dated 2024).
Where two headings read alike, the source gives them in different places.

Assay: Example 2 antiviral pharmacokinetic analysis, endpoint donor plasma
Assay type: in vivo
Conditions: ferret, sc, 4 mg/kg, 4 mg/kg s.c., read-out: baloxavir in plasma ±SD
Description: The active form baloxavir acid (S-033447, hereafter BXA) and pro-drug oseltamivir phosphate (hereafter OST) was kindly provided by Shionogi & Co., Ltd., Japan. The vehicle for BXA delivery was methyl cellulose (Sigma-Aldrich, Australia) in 0.5 w/v % aqueous solution prepared with sterile water (hereafter MC solution). BXA in suspension with MC solution (1 mg/mL) was prepared using an agate mortar and pestle, and was delivered to reversibly anaesthetised animals in a single treatment consisting of 4 subcutaneous injections at 4 locations on the dorsal region (total dose 4 mg/kg per animal). Animals in the placebo group were dosed identically using MC solution (1 mL/kg) alone. OST doses (10 mg/mL) were prepared in sugar solution (1 g/mL) and delivered bis in die (8 hr interval) to non-sedated ferrets by the oral route (total dose 10 mg/kg/day).
Endpoint BXA and placebo-treated donor blood samples were collected in heparinised tubes, and plasma isolated by centrifugation. Plasma samples were stored at −80° C. until transport to analytical facilities at Shionogi & Co., Ltd.
Experiment 1: Antiviral treatment for all donors commenced at 1 DPI, and naïve recipient ferrets were co-housed immediately following treatment. Body weight and temperature were monitored daily from all animals. Daily nasal wash samples were collected 1 mL of PBS from 1 DPI to 3 DPI for donor animals, and 1 day post exposure (DPE) to 10 DPE for recipient animals. Donors were sacrificed at 3 DPI (2 DPE), and blood was collected from BXA- and placebo-treated ferrets by cardiac puncture. Recipients were sacrificed at 10 DPE.
Experiment 2: Antiviral treatment commenced at 1 DPI, and recipient co-housing was delayed until 24 hr following treatment (2 DPI). Body weight and temperature were monitored daily from all animals. […]
Experiment 3: Antiviral treatment commenced at 2 DPI, and recipients were co-housed immediately afterwards. Body weight and temperature were monitored daily from all animals. […]

O=C1c2c(O)c(=O)ccn2N([C@@H]2c3ccccc3SCc3c2ccc(F)c3F)[C@@H]2COCCN12 [baloxavir, baloxavir acid]
concentration at 48 h (Example 2 Experiment 1, 48 hours post treatment): 10.2 ± 2.8 ng/mL | concentration at 72 h (Example 2 Experiment 2, 72 hr post treatment): 12.5 ± 2.4 ng/mL | concentration at 72 h (Example 2 Experiment 3, 72 hr post treatment (so in the source)): 24.5 ± 4.03 ng/mL
